Values quoted from earlier work as cited in US11946927B2, “Process and system for identifying individuals having a high risk of inflammatory bowel disease and a method of treatment” (MUSIDORA BIOTECHNOLOGY LLC, priority 2016, dated 2024).

Tested on: patients with active UC

Question: With Nc1ccc(O)c(C(=O)O)c1 [mesalamine] as the compound, how does the “efficacy of mesalamine in active UC” value (active UC, first-line conventional clinical treatment) read?
Answer: Its value is 30-40%.

Question: What about the clinical treatment failures (mesalamine used to treat active UC, patients with moderate UC, compared to 80% treated with placebo) of the same compound?
Answer: The clinical treatment failures was 60 % of patients.
